A short description of series [1]: Maximum copper complex content (solubility / encapsulation) of lipid formulations. The series is classed as physicochemical.
Description: Spatula or similar tools were used to blend the constituents until homogeneous. • Mixtures were heated (to 40-60° C.) using block heater.
Series [2] can be described thus: Hydrated lipid systems (F02): transparency check method for maximum solubility / encapsulation. It counts as physicochemical.
Excerpt: Briefly, 1 mm thick transparent glass slide with a small well was filled with corresponding formulation and its ability to see-through was checked, as shown by photographs referenced in Table 2.
Briefly, 1 mm thick transparent glass slide with a small well was filled with corresponding formulation and its ability to see-through was checked, as shown by photographs referenced in Table 3.
Series [3] is described as follows: Solubility limit in cubosomes solution (F03 nanostructured dispersions), sedimentation. It counts as physicochemical.
Excerpt: The numbers in mg indicate CuASP content in 10 g cubosomes solution (formed of 0.5 g lipid+9.5 g of 0.5% F127 solution in water).
A short description of series [4]: Centrifugation (200 rpm for 5 min) of F01 encapsulation mixtures. It counts as physicochemical. The settings on record: encapsulated mixture in MO or DU, visibly homogeneous at room temperature before. The method, then: It was in fact possible to add up to 126 mg of CuASP in 1 g of MO (as per F01-CuASP-MO-E) and up to about 130 mg in 1 g of DU (as per F01-CuASP-DU-E) (FIG. 4). […] With mere mixing by spatula the formulation was again homogeneous thereby encapsulating excess CuASP in the lipid phase.
With mere mixing by spatula the formulation was again homogeneous thereby encapsulating excess CuSL in the lipid phase.

For series [5] the following is noted: background; cited from earlier work.
For series [6] the following is noted: background; cited from earlier work. This is another data set of the same source.
The conditions of series [7]: background; cited from earlier work. The source holds these as a separate data set.

`CC(=O)Oc1ccccc1C(=O)[O-].CC(=O)Oc1ccccc1C(=O)[O-].CC(=O)Oc1ccccc1C(=O)[O-].CC(=O)Oc1ccccc1C(=O)[O-].[Cu+2].[Cu+2]` [CuASP, Copper (II) Aspirinate] had a solubility in lipids in series [1] (non-aqueous lipids (MO, DU), F01) of 1 mg/g. Further, the “amount possible to add (encapsulation) in 1 g of DU” value in series [1] (non-aqueous, in 1 g of DU (F01-...-DU-E)) is “up to 130 mg”. The “amount possible to add (encapsulation) in 1 g of MO” value in series [1] (non-aqueous, in 1 g of MO (F01-...-MO-E)) is “up to 126 mg”. The “amount encapsulated in DU cubic phase” value in series [2] (in 1.25 g cubic phase) was found to be 400 mg. Moreover, the “amount encapsulated in DU cubic phase per g of lipid” value in series [2] (viscous cubic phase in presence of water) is listed as “About 533 mg per g of lipid”. In series [3] (10 g cubosomes (0.5 g lipid + 9.5 g of 0.5% F127 solution)), the “solubility limit in cubosomes solution per g of lipid” value was 50 mg/g of lipid. The “content that was sedimented in cubosomes solution” value in series [3] (in 10 g cubosomes (0.5 g lipid + 9.5 g of 0.5% F127 solution in water)) amounted to 26 mg. The sedimentation after centrifugation result in series [4] is given as “some part of the powder sedimented”. Besides, the solubility in water result in series [5] is “poorly soluble in water”. In series [6], the “potency as an anti-inflammatory agent compared to aspirin” value was “more potent”. Also, the “irritancy to digestive track compared to aspirin” value in series [7] is “less irritant”.

The values are drawn from patent US20250387415A1, “COMPOSITIONS OF COPPER COMPLEXES” (University of Lancashire, priority 2022, published 2025).
